Results from the NIST ThermoML archive (doi:10.1016/j.jct.2017.03.032).

Experiment: wn = mass fraction of the nth substance listed
Conditions: Gas, Burnett expansion method

F/C=C/C(F)(F)F [trans-1,3,3,3-tetrafluoropropene] + CC(C)C
Conditions | mass density [kg/m3]
280.17 K, 167.4 kPa, w1 = 0.7 | 6.7132
280.17 K, 218.3 kPa, w1 = 0.7 | 8.9087
280.18 K, 165.3 kPa, w1 = 0.65 | 6.4038
280.18 K, 215.5 kPa, w1 = 0.65 | 8.4982
280.18 K, 229.9 kPa, w1 = 0.8 | 10.1496
285.05 K, 159.8 kPa, w1 = 0.8 | 6.7596
285.06 K, 208.9 kPa, w1 = 0.8 | 8.9702
285.06 K, 266.4 kPa, w1 = 0.75 | 11.209
285.06 K, 272 kPa, w1 = 0.8 | 11.904
285.06 K, 290 kPa, w1 = 0.9 | 13.8805
285.08 K, 149.5 kPa, w1 = 0.65 | 5.6292
285.08 K, 195.5 kPa, w1 = 0.65 | 7.4702
285.08 K, 254.6 kPa, w1 = 0.65 | 9.9134
285.09 K, 151.9 kPa, w1 = 0.7 | 5.9363
285.09 K, 198.7 kPa, w1 = 0.7 | 7.8779
285.09 K, 258.7 kPa, w1 = 0.7 | 10.4543
290.16 K, 140.3 kPa, w1 = 0.75 | 5.5569
290.16 K, 183.7 kPa, w1 = 0.75 | 7.3743
290.16 K, 234.4 kPa, w1 = 0.7 | 9.1876
290.16 K, 239.9 kPa, w1 = 0.75 | 9.7861
290.17 K, 153.8 kPa, w1 = 0.9 | 6.9178
290.17 K, 201.4 kPa, w1 = 0.9 | 9.1804
290.17 K, 262.6 kPa, w1 = 0.9 | 12.1828
290.17 K, 304.8 kPa, w1 = 0.7 | 12.1924
290.17 K, 311.8 kPa, w1 = 0.75 | 12.9866
290.17 K, 340.7 kPa, w1 = 0.9 | 16.1673
290.18 K, 176 kPa, w1 = 0.65 | 6.5292
290.18 K, 179.5 kPa, w1 = 0.7 | 6.9229
290.18 K, 229.9 kPa, w1 = 0.65 | 8.6646
290.18 K, 299.2 kPa, w1 = 0.65 | 11.4985
290.19 K, 148.1 kPa, w1 = 0.85 | 6.3743
290.19 K, 193.9 kPa, w1 = 0.85 | 8.459
290.19 K, 252.9 kPa, w1 = 0.85 | 11.2256
290.19 K, 328.4 kPa, w1 = 0.85 | 14.8972
290.2 K, 188.8 kPa, w1 = 0.8 | 7.8842
290.2 K, 246.5 kPa, w1 = 0.8 | 10.4628
290.2 K, 320.1 kPa, w1 = 0.8 | 13.8847
295.18 K, 138.3 kPa, w1 = 0.9 | 6.0742
295.18 K, 181.5 kPa, w1 = 0.9 | 8.0608
295.18 K, 198.3 kPa, w1 = 0.65 | 7.2638
295.18 K, 258.7 kPa, w1 = 0.65 | 9.6394
295.18 K, 308.8 kPa, w1 = 0.9 | 14.1958
295.18 K, 336.3 kPa, w1 = 0.65 | 12.7921
295.18 K, 399.6 kPa, w1 = 0.9 | 18.8389
295.19 K, 151.4 kPa, w1 = 0.65 | 5.4735
295.19 K, 237.2 kPa, w1 = 0.9 | 10.6968
295.2 K, 160.8 kPa, w1 = 0.7 | 6.0421
295.2 K, 173.7 kPa, w1 = 0.85 | 7.366
295.2 K, 210.4 kPa, w1 = 0.7 | 8.0182
295.2 K, 227.4 kPa, w1 = 0.85 | 9.7751
295.2 K, 274.6 kPa, w1 = 0.7 | 10.6407
295.2 K, 296.4 kPa, w1 = 0.85 | 12.9722
295.2 K, 356.2 kPa, w1 = 0.7 | 14.1209
295.2 K, 384.1 kPa, w1 = 0.85 | 17.2147
295.21 K, 165.5 kPa, w1 = 0.75 | 6.4713
295.21 K, 216.7 kPa, w1 = 0.75 | 8.5879
295.21 K, 282.6 kPa, w1 = 0.75 | 11.3966
295.21 K, 366.4 kPa, w1 = 0.75 | 15.1241
295.22 K, 169.2 kPa, w1 = 0.8 | 6.8878
295.22 K, 221.5 kPa, w1 = 0.8 | 9.1405
295.22 K, 288.6 kPa, w1 = 0.8 | 12.13
295.22 K, 374 kPa, w1 = 0.8 | 16.0973
300.14 K, 198.5 kPa, w1 = 0.8 | 7.9893
300.14 K, 259.5 kPa, w1 = 0.8 | 10.6023
300.14 K, 337.5 kPa, w1 = 0.8 | 14.0697
300.16 K, 151.4 kPa, w1 = 0.8 | 6.02
300.16 K, 156.6 kPa, w1 = 0.85 | 6.5188
300.16 K, 205.4 kPa, w1 = 0.85 | 8.6508
300.16 K, 268.4 kPa, w1 = 0.85 | 11.4801
300.16 K, 348.9 kPa, w1 = 0.85 | 15.2347
300.16 K, 448.5 kPa, w1 = 0.85 | 20.2174
300.17 K, 466.4 kPa, w1 = 0.9 | 21.9125
300.18 K, 162.8 kPa, w1 = 0.9 | 7.0652
300.18 K, 213.3 kPa, w1 = 0.9 | 9.3759
300.18 K, 278.5 kPa, w1 = 0.9 | 12.4424
300.18 K, 361.8 kPa, w1 = 0.9 | 16.5116
300.19 K, 141.1 kPa, w1 = 0.65 | 4.9939
300.19 K, 147.4 kPa, w1 = 0.75 | 5.6247
300.19 K, 185.2 kPa, w1 = 0.65 | 6.6273
300.19 K, 193.2 kPa, w1 = 0.75 | 7.4643
300.19 K, 242.2 kPa, w1 = 0.65 | 8.7948
300.19 K, 252.7 kPa, w1 = 0.75 | 9.9055
300.19 K, 315.5 kPa, w1 = 0.65 | 11.6712
300.19 K, 328.9 kPa, w1 = 0.75 | 13.1452
300.19 K, 408.2 kPa, w1 = 0.65 | 15.4884
300.19 K, 425.4 kPa, w1 = 0.75 | 17.4445
300.21 K, 143.9 kPa, w1 = 0.7 | 5.2837
300.21 K, 188.7 kPa, w1 = 0.7 | 7.0118
300.21 K, 246.8 kPa, w1 = 0.7 | 9.3051
300.21 K, 321.3 kPa, w1 = 0.7 | 12.3484
300.21 K, 415.8 kPa, w1 = 0.7 | 16.3872
305.17 K, 185.5 kPa, w1 = 0.8 | 7.2959
305.17 K, 243 kPa, w1 = 0.8 | 9.6822
305.17 K, 316.9 kPa, w1 = 0.8 | 12.8488
305.17 K, 410.9 kPa, w1 = 0.8 | 17.0511
305.18 K, 145.2 kPa, w1 = 0.85 | 5.912
305.18 K, 169.9 kPa, w1 = 0.7 | 6.1677
305.18 K, 189.6 kPa, w1 = 0.85 | 7.8456
305.18 K, 249.6 kPa, w1 = 0.85 | 10.4115
305.18 K, 290.8 kPa, w1 = 0.7 | 10.8618
305.18 K, 325.5 kPa, w1 = 0.85 | 13.8167
305.18 K, 377.9 kPa, w1 = 0.7 | 14.4143
305.18 K, 420.8 kPa, w1 = 0.85 | 18.3356
305.18 K, 536.7 kPa, w1 = 0.85 | 24.3325
305.19 K, 181.1 kPa, w1 = 0.75 | 6.8373
305.19 K, 222.7 kPa, w1 = 0.7 | 8.1848
305.19 K, 237.2 kPa, w1 = 0.75 | 9.0735
305.19 K, 401.5 kPa, w1 = 0.75 | 15.9791
305.19 K, 487 kPa, w1 = 0.7 | 19.1285
305.2 K, 162.4 kPa, w1 = 0.65 | 5.6789
305.2 K, 212.9 kPa, w1 = 0.65 | 7.5363
305.2 K, 278.3 kPa, w1 = 0.65 | 10.001
305.2 K, 309.5 kPa, w1 = 0.75 | 12.0406
305.2 K, 361.8 kPa, w1 = 0.65 | 13.2721
305.2 K, 465.9 kPa, w1 = 0.65 | 17.6129
305.21 K, 150 kPa, w1 = 0.9 | 6.375
305.21 K, 196.9 kPa, w1 = 0.9 | 8.4599
305.21 K, 257.6 kPa, w1 = 0.9 | 11.2269
305.21 K, 335.6 kPa, w1 = 0.9 | 14.8987
305.21 K, 434.3 kPa, w1 = 0.9 | 19.7715
305.21 K, 557 kPa, w1 = 0.9 | 26.2379
310.09 K, 153.4 kPa, w1 = 0.7 | 5.4721
310.09 K, 569.4 kPa, w1 = 0.7 | 22.5217
310.1 K, 157.4 kPa, w1 = 0.8 | 6.0902
310.1 K, 201.9 kPa, w1 = 0.7 | 7.2614
310.1 K, 207.9 kPa, w1 = 0.8 | 8.082
310.1 K, 271.8 kPa, w1 = 0.75 | 10.3201
310.1 K, 272 kPa, w1 = 0.8 | 10.7254
310.1 K, 344.7 kPa, w1 = 0.7 | 12.7882
310.1 K, 354.2 kPa, w1 = 0.75 | 13.6955
310.1 K, 354.6 kPa, w1 = 0.8 | 14.233
310.1 K, 458.2 kPa, w1 = 0.8 | 18.8881
310.1 K, 459.6 kPa, w1 = 0.75 | 18.1746
310.1 K, 583 kPa, w1 = 0.75 | 24.1187
310.1 K, 583.3 kPa, w1 = 0.8 | 25.0653
310.11 K, 158.1 kPa, w1 = 0.75 | 5.86
310.11 K, 207.6 kPa, w1 = 0.75 | 7.7765
310.11 K, 446.6 kPa, w1 = 0.7 | 16.9702
310.12 K, 264.5 kPa, w1 = 0.7 | 9.6359
310.12 K, 493.5 kPa, w1 = 0.9 | 22.3926
310.13 K, 166 kPa, w1 = 0.85 | 6.6824
310.13 K, 172 kPa, w1 = 0.9 | 7.22
310.13 K, 225.6 kPa, w1 = 0.9 | 9.5815
310.13 K, 294.9 kPa, w1 = 0.9 | 12.7151
310.13 K, 337.1 kPa, w1 = 0.65 | 12.0235
310.13 K, 372.9 kPa, w1 = 0.85 | 15.6171
310.13 K, 383.7 kPa, w1 = 0.9 | 16.8736
310.13 K, 436.3 kPa, w1 = 0.65 | 15.9559
310.13 K, 556 kPa, w1 = 0.65 | 21.1744
310.13 K, 607.5 kPa, w1 = 0.85 | 27.5031
310.14 K, 196.8 kPa, w1 = 0.65 | 6.8271
310.14 K, 216.8 kPa, w1 = 0.85 | 8.8678
310.14 K, 258.2 kPa, w1 = 0.65 | 9.0598
310.14 K, 285 kPa, w1 = 0.85 | 11.7678
310.14 K, 479.8 kPa, w1 = 0.85 | 20.7246
310.15 K, 149.8 kPa, w1 = 0.65 | 5.1443
